Results reported in ChEMBL document CHEMBL5370526, “Recent advances in EZH2-based dual inhibitors in the treatment of cancers” (Eur J Med Chem, 2023).

Assays:
HCT-116 = experiment: Cytotoxicity against human HCT-116 cells assessed as reduction in cell viability measured after 72 hrs by MTT assay; type: functional, cell-based; settings: HCT-116, 72 h
KARPAS-422 [1] = experiment: Growth inhibition of human KARPAS-422 cells assessed as reduction in cell viability measured after 72 hrs by MTT assay; type: functional
G-401 = experiment: Growth inhibition of human G-401 cells assessed as reduction in cell viability measured after 72 hrs by MTT assay; type: functional
NCI-N87 = experiment: Growth inhibition of human NCI-N87 cells assessed as reduction in cell viability measured after 72 hrs by MTT assay; type: functional
[2] = target: Histone-lysine N-methyltransferase EZH2 (Homo sapiens, UniProt Q15910, Y641F); experiment: Inhibition of N-terminal FLAG-tagged recombinant full-length human EZH2 Y641F mutant in PRC2 complex expressed in baculovirus infected Sf9 cells using H3K27me0 biotin/SAM as substrate preincubated for 10 mins followed by substrate addition measured after 4 hrs by HTRF assay
Chain of Histone-lysine N-methyltransferase EZH2 (Homo sapiens, UniProt Q15910, Y641F) (Q15910 whole entry Y641F): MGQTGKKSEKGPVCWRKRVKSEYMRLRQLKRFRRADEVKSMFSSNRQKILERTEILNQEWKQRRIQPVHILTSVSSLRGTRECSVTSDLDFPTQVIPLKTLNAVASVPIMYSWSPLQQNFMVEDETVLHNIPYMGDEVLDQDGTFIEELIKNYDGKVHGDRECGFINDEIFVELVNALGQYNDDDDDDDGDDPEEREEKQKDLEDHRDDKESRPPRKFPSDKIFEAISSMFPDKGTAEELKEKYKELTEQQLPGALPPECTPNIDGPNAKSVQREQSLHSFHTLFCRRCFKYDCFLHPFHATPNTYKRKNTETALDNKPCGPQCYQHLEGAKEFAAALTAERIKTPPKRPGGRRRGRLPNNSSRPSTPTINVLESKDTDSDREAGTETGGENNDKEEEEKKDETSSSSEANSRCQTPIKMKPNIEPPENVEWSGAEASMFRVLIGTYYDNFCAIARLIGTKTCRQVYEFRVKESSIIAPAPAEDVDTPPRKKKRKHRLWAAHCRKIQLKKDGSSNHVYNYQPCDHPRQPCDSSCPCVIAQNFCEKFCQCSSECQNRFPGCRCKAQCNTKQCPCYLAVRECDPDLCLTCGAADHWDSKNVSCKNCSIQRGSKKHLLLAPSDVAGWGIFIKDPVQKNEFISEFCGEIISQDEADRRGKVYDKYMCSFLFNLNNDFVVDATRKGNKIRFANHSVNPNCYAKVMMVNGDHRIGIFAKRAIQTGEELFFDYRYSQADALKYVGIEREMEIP

[3] = target: T1, Histone-lysine N-methyltransferase EZH2 (Homo sapiens, UniProt Q15910); experiment: Inhibition of EZH2 (unknown origin) using plate-coated histone as substrate at 5 uM incubated for 90 mins in presence of 5 uM SAM by AlphaScreen assay
T1 sequence (Q15910 whole entry): as the sequence (Q15910 whole entry Y641F) above, with F641Y counted along it

[4] = Antiproliferative activity against human DLBCL cells assessed as reduction in cell viability measured after 72 hrs by MTT assay; type: functional, cell-based
[5] = target: T1, Histone-lysine N-methyltransferase EZH2
Description: Inhibition of human EZH2 using core histone as substrate incubated for 1 hr by fluorescence based assay

[6] = target: T1, Histone-lysine N-methyltransferase EZH2; remark: listed apart in the source
Description: Inhibition of human EZH2 in human MCF-10A cells assessed as reduction in H3K27me3 levels incubated for 72 hrs by Western blot analysis

ASPC1 = experiment: Antiproliferative activity against human ASPC1 cells harboring KRAS G12D mutant assessed as reduction in cell growth measured after 72 hrs by MTT assay; type: functional, cell-based; settings: ASPC1, 72 h
MCF-10A = experiment: Antiproliferative activity against human MCF-10A cells assessed as cell growth inhibition measured after 72 hrs by MTT assay; type: functional, cell-based
[7] = target: T1, Histone-lysine N-methyltransferase EZH2; experiment: Inhibition of wildtype EZH2 (unknown origin)
[8] = target: T1, Histone-lysine N-methyltransferase EZH2; experiment: Inhibition of EZH2 methyltransferase activity in human PA-1 cells assessed as reduction in H3K27me3 level measured after 4 days by Western blot analysis; type: cell-based
A549 = experiment: Antiproliferative activity against human A549 cells assessed as reduction in cell viability measured after 48 hrs by MTT assay; type: functional, cell-based; settings: A549, 48 h
KARPAS-422 [9] = experiment: Antitumor activity against human KARPAS-422 cells xenografted in nude mouse assessed as reduction in tumor growth at 100 mg/kg, po administered once daily for 14 consecutive days relative to control; type: functional; settings: read-out: TGI
[10] = target: T1, Histone-lysine N-methyltransferase EZH2; experiment: Inhibition of EZH2 (unknown origin) using SAM as substrate preincubated for 10 mins followed by substrate addition and measured after 4 hrs by HTRF assay
MV4-11 = experiment: Growth inhibition of human MV4-11 cells assessed as reduction in cell viability measured after 72 hrs by MTT assay; type: functional
RS4-11 = experiment: Growth inhibition of human RS4-11 cells assessed as reduction in cell viability measured after 72 hrs by MTT assay; type: functional

Cc1cc(C)c(CNC(=O)c2cc(Br)c3c(c2C)O[C@@](C)([C@H]2CC[C@H](N(C)C)CC2)O3)c(=O)[nH]1
IC50 (HCT-116): 0.62 nM
GI50 (KARPAS-422 [1]): 4 nM
GI50 (G-401): 17.7 nM
GI50 (NCI-N87): 536 nM

CCCc1cc(C)[nH]c(=O)c1CNC(=O)c1cc(-c2ccc(N3CCN(C)CC3)nc2)nc2c1cnn2C(C)C
IC50 [2]: 80 nM

CCN(c1cc(-c2ccc(CN3CCN(C(=O)CCCCCCCC(=O)N[C@H](C(=O)N4C[C@H](O)C[C@H]4C(=O)NCc4ccc(-c5scnc5C)cc4)C(C)(C)C)CC3)cc2)cc(C(=O)NCc2c(C)cc(C)[nH]c2=O)c1C)C1CCOCC1
IC50 [3]: 8600 nM

CCCc1cc(C)[nH]c(=O)c1CNC(=O)c1cc(-c2ccc(N3CCN(C(C)C)CC3)nc2)cc2c1cnn2C(C)C
EC50 [4]: 633 nM
IC50 [5]: < 10 nM
IC50 [6]: < 10 nM

CCN(c1cc(-c2ccc(OCCCCCNC(=O)C[C@@H]3N=C(c4ccc(Cl)cc4)c4c(sc(C)c4C)-n4c(C)nnc43)cc2)cc(C(=O)NCc2c(C)cc(C)[nH]c2=O)c1C)C1CCOCC1
IC50 (ASPC1): 690 nM

COc1cc2nc(N3CCN(C)CC3)nc(NC3CCN(Cc4ccccc4)CC3)c2cc1OC
IC50 (MCF-10A): > 15000 nM

CCN(c1cc(C(=O)NCc2c(C)cc(C)[nH]c2=O)c2cc(CN3CCCCC3)oc2c1)C1CCOCC1
IC50 [7]: 6.4 nM

CCN(c1cc(-c2ccc(CN3CCN(CCCCCCCOc4cccc5c4C(=O)N(C4CCC(=O)NC4=O)C5=O)CC3)cc2)cc(C(=O)NCc2c(C)cc(C)[nH]c2=O)c1C)C1CCOCC1 (configuration not stated)
IC50 [8]: < 5 nM

Cc1cc(C)c(CNC(=O)c2c(C)cn(Cc3ccc(C(F)(F)F)cc3)c2C)c(=O)[nH]1
IC50 (A549): 270000 nM

CCN1CCN(c2ccc(-c3cc(C(=O)NCc4c(C)cc(C)[nH]c4=O)c(C)c4c3O[C@](C)(CN3CCOCC3)O4)cn2)CC1
IC50 (HCT-116): 0.55 nM
GI50 (KARPAS-422 [1]): 210 nM
inhibition in vivo at 100 mg/kg (KARPAS-422 [9]): 82%

Cc1cc(C)c(CNC(=O)c2cc(-c3ccc(N4CCN(CCNC(=O)C56CC7CC(CC(C7)C5)C6)CC4)nc3)cc3c2cnn3C(C)C)c(=O)[nH]1
IC50 [10]: 120 nM

Cc1cc(C)c(CNC(=O)c2cc(Cl)c3c(c2C)O[C@@](C)([C@H]2CC[C@H](N(C)C)CC2)O3)c(=O)[nH]1 [VALEMETOSTAT]
IC50 (HCT-116): 24 nM
GI50 (KARPAS-422 [1]): 4.8 nM
GI50 (MV4-11): 4.8 nM
GI50 (RS4-11): 78.3 nM
